Source: article PMC7782499, “Progerinin, an optimized progerin-lamin A binding inhibitor, ameliorates premature senescence phenotypes of Hutchinson-Gilford progeria syndrome” (Communications Biology, 2021)
“And” between values parts separate entries of the source, which are not always exact repeats. Equal values may be shown once.

Target: T1, progerin (Homo sapiens, UniProt P02545)
T1 sequence (P02545 1-614 isoform P02545-6): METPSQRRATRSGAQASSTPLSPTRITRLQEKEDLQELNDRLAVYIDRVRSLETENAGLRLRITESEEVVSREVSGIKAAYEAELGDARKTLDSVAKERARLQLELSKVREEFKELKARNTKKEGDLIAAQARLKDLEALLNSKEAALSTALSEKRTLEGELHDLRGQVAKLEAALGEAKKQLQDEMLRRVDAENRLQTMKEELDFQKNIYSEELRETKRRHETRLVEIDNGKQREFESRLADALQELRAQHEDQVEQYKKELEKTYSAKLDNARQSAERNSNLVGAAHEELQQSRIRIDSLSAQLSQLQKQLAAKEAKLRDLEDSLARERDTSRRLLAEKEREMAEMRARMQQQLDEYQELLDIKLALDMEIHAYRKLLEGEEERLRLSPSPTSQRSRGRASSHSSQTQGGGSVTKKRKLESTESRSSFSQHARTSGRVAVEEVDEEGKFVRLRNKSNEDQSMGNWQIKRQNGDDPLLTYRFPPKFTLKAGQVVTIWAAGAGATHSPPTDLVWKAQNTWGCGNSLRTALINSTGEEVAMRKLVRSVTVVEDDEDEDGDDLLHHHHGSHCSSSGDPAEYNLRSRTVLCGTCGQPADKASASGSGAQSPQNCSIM
Assay: Progerin expression in HGPS patient cells (western blot, immunostaining)
Type: cell-based
Parameters: host or cells: HGPS patient fibroblasts
Settings: for Progerin intensity after treatment with chemicals, Ave: average; for Progerin intensity after treatment with chemicals: single replicates
Procedure: Fig. 1 SLC-D011 ameliorates premature aging features of HGPS. A. HEK293 cells were transiently transfected with expression vector encoding wild-type lamin A (WT-LA), lamin A-C661A (LA-C661A), progerin, or progerin-C611A. LA-C661A or progerin-C611A with point mutation in CaaX motif was predicted to be lack of farnesylation, […] that of authentic WT-LA or progerin. GFP-conjugated empty expression vector was used as a negative control. Cells were visualized at 24 h after transfection. B Transient transfection of HEK293 cells with expression vector encoding progerin or progerin-G611A leads to reduced expression of H3K9me3 (n = 3 independent experiments; two-tailed Student’s t test). C. JH4 derivatives (JH010 and SLC-D011(D011)) inhibit lamin A and progerin interaction. For binding inhibition assay, bead-conjugated lamin A (GST-LA) was incubated with HEK293 cells, transiently transfected with GFP-progerin (PG), and treated with indicated chemicals. Actin was used as a loading control. PPT, co-precipitated materials with recombinant proteins; Sup supernatant. 5 μM of each chemical was used for binding assay. […] H3K9me3 reduction is a well-known marker for premature aged cells. Thus, H3K9me3 expression was evaluated by immunostaining. […] E SLC-D011 obviously suppresses progerin expression. […] F SLC-D011 reduces the expression of progerin in other HGPS cells (AG11513 and AG11498, Coriell Cell Repositories). […] G JH4, JH010, and SLC-D011 promote cell proliferation. Cell viability was determined by MTT assay after incubation with chemicals for 7 days (n = 3 independent experiments; two-tailed Student’s t test). H JH4, JH010, and SLC-D011 show similar activity for ameliorating nuclear deformation. After incubation with chemicals for 7 days, cells were stained with progerin and H3K9me3 antibodies (n = 3 independent experiment; two-tailed Student’s t test), **p < 0.001. Data are reported as mean ± SD. “Con” means Dimethyl sulfoxide (DMSO)-treated control. The data are normalized to DMSO-treated cells.
Protein was extracted from cells using a radioimmunoprecipitation assay (RIPA) buffer (50 mM Tris-Cl, pH 7.5, 150 mM NaCl, 1% NP-40, 0.1% SDS, and 10% sodium deoxycholate). Samples were separated by sodium dodecyl sulfate-polyacrylamide gel electrophoresis (SDS-PAGE) and transferred to polyvinylidene difluoride (PVDF) membranes. Blotted membranes were blocked with 3% skimmed milk in TBS-T buffer (20 mM Tris pH 7.6, 150 mM NaCl, and 0.05% Tween 20) for 1 h followed by incubation with specific primary antibodies. Horseradish peroxidase (HRP)-conjugated goat anti-mouse, goat anti-rabbit, and mouse anti-goat IgG antibodies (Pierce, Thermo Fisher Scientific, Inc., Rockford, IL, USA) were used as secondary antibodies. Peroxidase activity was detected by chemiluminescence using an ECL kit (Intron, Seoul, Korea) following the manufacturer’s instructions. Bands were quantified using Image J software (National Institute of Health, NIH).
Cells were cultured on coverslips, washed with PBS, fixed with 4% paraformaldehyde (PFA) for 30 min at RT, and then permeabilized with 0.2% Triton X-100 at RT for 5 min. After treatment with blocking solution (anti-Human antibody diluted 1:400 in PBS) for 1 h, cells were incubated with anti-lamin A/C (1:400), anti-progerin (1:100), Ki67 (1:200), and anti-H3K9me3 (1:200) in blocking buffer overnight at 4 °C. Finally, cells were incubated with fluorescein isothiocyanate and rhodamine-conjugated secondary antibodies at 4 °C for 7 h. Nuclei were stained with DAPI (4, 6-diamidino-2-phenylindole) at RT for 10 min. After cells were washed three times with PBS, coverslips were mounted with mounting solution (H-5501; Vector Laboratories, Burlingame, CA, USA). Immunofluorescence signal was detected with a fluorescence microscopy (Zeiss and Logos).
Fig. S7. Therapeutic effect of SLC-D011 at a low concentration. […]
AG11513; B) dose-dependently. […]

CC1(C)Oc2cc3oc(=O)ccc3cc2CC1OC(=O)C=Cc1cccnc1 (stereo not shown) [JH4]
Progerin intensity after treatment with chemicals, Ave (AG03198, 2μM): 15.1057 AU | Progerin intensity after treatment with chemicals (AG03198, 2μM): 13.2274 AU and 13.4377 AU and 18.652 AU | Progerin intensity after treatment with chemicals, Ave (AG03198, 5μM): 4.247 AU | Progerin intensity after treatment with chemicals (AG03198, 5μM): 1.2854 AU and 1.491 AU and 9.966 AU

CC1(C)Oc2cc3oc(=O)ccc3cc2C[C@@H]1OC/C=C/c1ccccc1 [SLC-D011]
Progerin intensity after treatment with SLC-D011, Ave (AG03198, 10nM, average (Fig S7C)): 7.117 AU | Progerin intensity after treatment with SLC-D011 (AG03198, 10nM, single replicates (Fig S7C)): 5.32 AU and 7.51 AU and 8.52 AU | Progerin intensity after treatment with SLC-D011, Ave (AG03198, 50nM, average (Fig S7C)): 3.183 AU | Progerin intensity after treatment with SLC-D011 (AG03198, 50nM, single replicates (Fig S7C)): 2.38 AU and 3.11 AU and 4.06 AU | Progerin intensity after treatment with SLC-D011, Ave (AG03198, 100nM, average (Fig S7C)): 1.91 AU | Progerin intensity after treatment with SLC-D011 (AG03198, 100nM, single replicates (Fig S7C)): 2.22 AU and 1.69 AU and 1.82 AU | Progerin intensity after treatment with SLC-D011, Ave (AG03198, 500nM, average (Fig S7C)): 1.503 AU | Progerin intensity after treatment with SLC-D011 (AG03198, 500nM, single replicates (Fig S7C)): 2.58 AU and 0.9 AU and 1.03 AU | Progerin intensity after treatment with SLC-D011, Ave (AG03198, 1μM, average (Fig S7C)): 0.68 AU | Progerin intensity after treatment with SLC-D011 (AG03198, 1μM, single replicates (Fig S7C)): 1.32 AU and 0.45 AU and 0.27 AU | Progerin intensity after treatment with chemicals, Ave (AG03198, 2μM): 1.893 AU | Progerin intensity after treatment with SLC-D011, Ave (AG03198, 2μM, average (Fig S7C)): 0.14 AU | Progerin intensity after treatment with chemicals (AG03198, 2μM): 1.798 AU and 1.397 AU and 2.484 AU | Progerin intensity after treatment with SLC-D011 (AG03198, 2μM, single replicates (Fig S7C)): 0 AU and 0.23 AU and 0.19 AU | Progerin intensity after treatment with chemicals, Ave (AG03198, 5μM): 0.1657 AU | Progerin intensity after treatment with SLC-D011, Ave (AG03198, 5μM, average (Fig S7C)): 0.02333 AU | Progerin intensity after treatment with chemicals (AG03198, 5μM): 0 AU and 0.123 AU and 0.3741 AU | Progerin intensity after treatment with SLC-D011 (AG03198, 5μM, single replicates (Fig S7C)): 0 AU (2×) and 0.07 AU | Progerin intensity after treatment with SLC-D011, Ave (AG11498, 10nM, average (Fig S7C)): 6.647 AU | Progerin intensity after treatment with SLC-D011 (AG11498, 10nM, single replicates (Fig S7C)): 6.56 AU and 6.24 AU and 7.14 AU | Progerin intensity after treatment with SLC-D011, Ave (AG11498, 50nM, average (Fig S7C)): 4.11 AU | Progerin intensity after treatment with SLC-D011 (AG11498, 50nM, single replicates (Fig S7C)): 2.38 AU and 3.5 AU and 6.45 AU | Progerin intensity after treatment with SLC-D011, Ave (AG11498, 100nM, average (Fig S7C)): 1.733 AU | Progerin intensity after treatment with SLC-D011 (AG11498, 100nM, single replicates (Fig S7C)): 0 AU and 1.5 AU and 3.7 AU | Progerin intensity after treatment with SLC-D011, Ave (AG11498, 500nM, average (Fig S7C)): 0.9 AU | Progerin intensity after treatment with SLC-D011 (AG11498, 500nM, single replicates (Fig S7C)): 0 AU and 0.6 AU and 2.1 AU | Progerin intensity after treatment with SLC-D011, Ave (AG11498, 1μM, average (Fig S7C)): 0.4533 AU | Progerin intensity after treatment with SLC-D011 (AG11498, 1μM, single replicates (Fig S7C)): 0 AU (2×) and 1.36 AU | Progerin intensity after treatment with SLC-D011, Ave (AG11498, 2μM, average (Fig S7C)): 0.3333 AU | Progerin intensity after treatment with SLC-D011 (AG11498, 2μM, single replicates (Fig S7C)): 0 AU (2×) and 1 AU | Progerin intensity after treatment with SLC-D011, Ave (AG11498, 5μM, average (Fig S7C)): 0.25 AU | Progerin intensity after treatment with SLC-D011 (AG11498, 5μM, single replicates (Fig S7C)): 0 AU (2×) and 0.75 AU | Progerin intensity after treatment with SLC-D011, Ave (AG11498, average (Fig S3H)): 1.892 AU | Progerin intensity after treatment with SLC-D011 (AG11498, single replicates (Fig S3H)): 5.217 AU and 0.1632 AU and 0.2958 AU | Progerin intensity after treatment with SLC-D011, Ave (AG11513, 10nM, average (Fig S7C)): 5.123 AU | Progerin intensity after treatment with SLC-D011 (AG11513, 10nM, single replicates (Fig S7C)): 2.96 AU and 6.48 AU and 5.93 AU | Progerin intensity after treatment with SLC-D011, Ave (AG11513, 50nM, average (Fig S7C)): 3.793 AU | Progerin intensity after treatment with SLC-D011 (AG11513, 50nM, single replicates (Fig S7C)): 3.06 AU and 4.3 AU and 4.02 AU | Progerin intensity after treatment with SLC-D011, Ave (AG11513, 100nM, average (Fig S7C)): 2.487 AU | Progerin intensity after treatment with SLC-D011 (AG11513, 100nM, single replicates (Fig S7C)): 2.07 AU and 2.27 AU and 3.12 AU | Progerin intensity after treatment with SLC-D011, Ave (AG11513, 500nM, average (Fig S7C)): 1.19 AU | Progerin intensity after treatment with SLC-D011 (AG11513, 500nM, single replicates (Fig S7C)): 0.81 AU and 1.08 AU and 1.68 AU | Progerin intensity after treatment with SLC-D011, Ave (AG11513, 1μM, average (Fig S7C)): 0.59 AU | Progerin intensity after treatment with SLC-D011 (AG11513, 1μM, single replicates (Fig S7C)): 0.55 AU and 0.6 AU and 0.62 AU | Progerin intensity after treatment with SLC-D011, Ave (AG11513, 2μM, average (Fig S7C)): 0.2167 AU | Progerin intensity after treatment with SLC-D011 (AG11513, 2μM, single replicates (Fig S7C)): 0.27 AU and 0.22 AU and 0.16 AU | Progerin intensity after treatment with SLC-D011, Ave (AG11513, 5μM, average (Fig S7C)): 0.09 AU | Progerin intensity after treatment with SLC-D011 (AG11513, 5μM, single replicates (Fig S7C)): 0.2 AU and 0 AU and 0.07 AU | Progerin intensity after treatment with SLC-D011, Ave (AG11513, average (Fig S3H)): 1.455 AU | Progerin intensity after treatment with SLC-D011 (AG11513, single replicates (Fig S3H)): 1.494 AU and 1.1106 AU and 1.761 AU | Concentration enough for eliminating progerin (HGPS cells): 100 nM | Effect on progerin expression (HGPS cells): reduce progerin expression | Progerin intensity after treatment with SLC-D011, Ave (N9, average (Fig S3H)): 0 AU | Progerin intensity after treatment with SLC-D011 (N9, single replicates (Fig S3H)): 0 AU
